How the values were obtained:
Assay type in all cases: cell-based
[1] = system: K562, Nalm-6, Molt-4, Reh, Jurkat, Hek293T cell lines; assay: MTT assay, overall judgement over all cell lines; details: overall judgement in words; for 6 and 10: on all cell lines, except Reh
Outline: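 MTT viability assay run across a range of compound concentrations in leukemic lines, BCR-ABL positive K562 and BCR-ABL negative Nalm-6, Molt-4, Reh, Jurkat, plus non-leukemic Hek293T. Viability rate calculated per concentration.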

Jurkat = assay: MTT assay, Jurkat cells; details: Homo sapiens, 24 h, read-out: Viability rate
Nalm-6 = assay: MTT assay, Nalm-6 cells; details: Homo sapiens, 24 h, MTT, read-out: Viability rate
K562 = assay: MTT assay, K562 cells; details: Homo sapiens, 24 h, MTT, read-out: Viability rate
Reh = assay: MTT assay, Reh cells; details: Homo sapiens, 24 h, read-out: Viability rate
[2] = MTT assay, Hek293T non-leukemic control cells; details: human, read-out: Viability rate
Molt-4 = assay: MTT assay, Molt-4 cells; details: Homo sapiens, MOLT-4, 24 h, read-out: Viability rate

Cc1ccnc(Nc2cc(NC(=O)c3ccc(CN4CCOCC4)cc3)ccc2C)n1 [Compound 8, N-(4-Methyl-3-((4-methylpyrimidin-2-yl)amino)phenyl)-4-(morhpolinomethyl)benzamide]
anticancer activity according to MTT assay results [1]: relatively lower activity | viability at 0.3 µM (Jurkat; 0.3 μM): 81.7 ± 0.08% | viability at 0.5 µM (Jurkat; 0.5 μM): 78.7 ± 0.03% | viability at 1 µM (Jurkat; 1 μM): 75.8 ± 0.04% | viability at 3 µM (Jurkat; 3 μM): 76.8 ± 0.04% | viability at 5 µM (Jurkat; 5 μM): 78.8 ± 0.02% | viability at 10 µM (Jurkat; 10 μM): 78.5 ± 0.05% | viability at 15 µM (Jurkat; 15 μM): 77.6 ± 0.05% | viability at 20 µM (Jurkat; 20 μM): 77.6 ± 0.04% | viability at 30 µM (Jurkat; 30 μM): 66.1 ± 0.07% | viability at 50 µM (Jurkat; 50 μM): 65.4 ± 0.03% | viability at 70 µM (Jurkat; 70 μM): 65.3 ± 0.04% | viability at 100 µM (Jurkat; 100 μM): 63 ± 0.02% | viability at 150 µM (Jurkat; 150 μM): 62.4 ± 0.08% | viability at 200 µM (Jurkat; 200 μM): 62.3 ± 0.05% | viability at 0.3 µM (Nalm-6; Nalm-6, 0.3 μM): 102.8 ± 0.04% | viability at 0.5 µM (Nalm-6; Nalm-6, 0.5 μM): 101.8 ± 0.04% | viability at 1 µM (Nalm-6; Nalm-6, 1 μM): 102.7 ± 0.02% | viability at 3 µM (Nalm-6; Nalm-6, 3 μM): 99.6 ± 0.04% | viability at 5 µM (Nalm-6; Nalm-6, 5 μM): 102.5 ± 0.02% | viability at 10 µM (Nalm-6; Nalm-6, 10 μM): 100.6 ± 0.03% | viability at 15 µM (Nalm-6; Nalm-6, 15 μM): 100 ± 0.03% | viability at 20 µM (Nalm-6; Nalm-6, 20 μM): 94.2 ± 0.07% | viability at 30 µM (Nalm-6; Nalm-6, 30 μM): 95.9 ± 0.07% | viability at 50 µM (Nalm-6; Nalm-6, 50 μM): 91.9 ± 0.06% | viability at 70 µM (Nalm-6; Nalm-6, 70 μM): 87.7 ± 0.02% | viability at 100 µM (Nalm-6; Nalm-6, 100 μM): 87.4 ± 0.02% | viability at 150 µM (Nalm-6; Nalm-6, 150 μM): 81.3 ± 0.02% | viability at 200 µM (Nalm-6; Nalm-6, 200 μM): 70.8 ± 0.01% | viability at 0.3 µM (K562; K562, 0.3 μM): 86.2 ± 0.09% | viability at 0.5 µM (K562; K562, 0.5 μM): 85.3 ± 0.03% | viability at 1 µM (K562; K562, 1 μM): 84.7 ± 0.05% | viability at 3 µM (K562; K562, 3 μM): 84.7 ± 0.06% | viability at 5 µM (K562; K562, 5 μM): 76.8 ± 0.11% | viability at 10 µM (K562; K562, 10 μM): 76.7 ± 0.05% | viability at 15 µM (K562; K562, 15 μM): 76.7 ± 0.08% | viability at 20 µM (K562; K562, 20 μM): 76.6 ± 0.04% | viability at 30 µM (K562; K562, 30 μM): 75.6 ± 0.09% | viability at 50 µM (K562; K562, 50 μM): 72.5 ± 0.07% | viability at 70 µM (K562; K562, 70 μM): 72.6 ± 0.08% | viability at 100 µM (K562; K562, 100 μM): 66.4 ± 0.02% | viability at 150 µM (K562; K562, 150 μM): 65.3 ± 0.06% | viability at 200 µM (K562; K562, 200 μM): 65.2 ± 0.06% | viability at 0.3 µM (Reh; 0.3 μM): 100.8 ± 0.03% | viability at 0.5 µM (Reh; 0.5 μM): 102.4 ± 0.02% | viability at 1 µM (Reh; 1 μM): 102 ± 0.01% | viability at 3 µM (Reh; 3 μM): 104.8 ± 0.02% | viability at 5 µM (Reh; 5 μM): 103.5 ± 0.01% | viability at 10 µM (Reh; 10 μM): 103.1 ± 0.01% | viability at 15 µM (Reh; 15 μM): 100.3 ± 0.01% | viability at 20 µM (Reh; 20 μM): 100.6 ± 0.02% | viability at 30 µM (Reh; 30 μM): 102.4 ± 0.04% | viability at 50 µM (Reh; 50 μM): 99.4 ± 0.02% | viability at 70 µM (Reh; 70 μM): 94.2 ± 0.03% | viability at 100 µM (Reh; 100 μM): 91.1 ± 0.01% | viability at 150 µM (Reh; 150 μM): 91.1 ± 0.02% | viability at 200 µM (Reh; 200 μM): 91.2 ± 0.04% | viability at 24 h, 0.3 µM ([2]; Hek293T cells (non-leukemic control cell line), 0.3 μM): 95.7 ± 0.03% | viability at 24 h, 0.5 µM ([2]; Hek293T cells (non-leukemic control cell line), 0.5 μM): 94.8 ± 0.07% | viability at 24 h, 3 µM ([2]; Hek293T cells (non-leukemic control cell line), 3 μM): 92.9 ± 0.04% | viability at 24 h, 5 µM ([2]; Hek293T cells (non-leukemic control cell line), 5 μM): 91.2 ± 0.09% | viability at 24 h, 10 µM ([2]; Hek293T cells (non-leukemic control cell line), 10 μM): 90.8 ± 0.05% | viability at 24 h, 15 µM ([2]; Hek293T cells (non-leukemic control cell line), 15 μM): 90.1 ± 0.07% | viability at 24 h, 20 µM ([2]; Hek293T cells (non-leukemic control cell line), 20 μM): 90 ± 0.04% | viability at 24 h, 30 µM ([2]; Hek293T cells (non-leukemic control cell line), 30 μM): 84.9 ± 0.04% | viability at 24 h, 50 µM ([2]; Hek293T cells (non-leukemic control cell line), 50 μM): 81.3 ± 0.02% | viability at 24 h, 70 µM ([2]; Hek293T cells (non-leukemic control cell line), 70 μM): 66.9 ± 0.02% | viability at 24 h, 100 µM ([2]; Hek293T cells (non-leukemic control cell line), 100 μM): 66.4 ± 0.03% | viability at 24 h, 150 µM ([2]; Hek293T cells (non-leukemic control cell line), 150 μM): 59.4 ± 0.01% | viability at 24 h, 200 µM ([2]; Hek293T cells (non-leukemic control cell line), 200 μM): 58.2 ± 0.01% | viability at 24 h, 1 µM ([2]; Hek293T cells, 1 μM): 94.3 ± 0.06% | viability at 0.3 µM (Molt-4; Molt-4, 0.3 μM): 98.5 ± 0.09% | viability at 0.5 µM (Molt-4; Molt-4, 0.5 μM): 98.5 ± 0.11% | viability at 1 µM (Molt-4; Molt-4, 1 μM): 95.4 ± 0.11% | viability at 3 µM (Molt-4; Molt-4, 3 μM): 89.2 ± 0.07% | viability at 5 µM (Molt-4; Molt-4, 5 μM): 90.7 ± 0.07% | viability at 10 µM (Molt-4; Molt-4, 10 μM): 90.4 ± 0.07% | viability at 15 µM (Molt-4; Molt-4, 15 μM): 90.8 ± 0.05% | viability at 20 µM (Molt-4; Molt-4, 20 μM): 88.3 ± 0.04% | viability at 30 µM (Molt-4; Molt-4, 30 μM): 85.8 ± 0.04% | viability at 50 µM (Molt-4; Molt-4, 50 μM): 83.6 ± 0.02% | viability at 70 µM (Molt-4; Molt-4, 70 μM): 82.6 ± 0.09% | viability at 100 µM (Molt-4; Molt-4, 100 μM): 81.5 ± 0.09% | viability at 150 µM (Molt-4; Molt-4, 150 μM): 78.9 ± 0.05% | viability at 200 µM (Molt-4; Molt-4, 200 μM): 78.8 ± 0.07%
